Measurements published in ChEMBL document CHEMBL5532742, “Design and Synthesis of the Linezolid Bioisosteres to Resolve the Serotonergic Toxicity Associated with Linezolid” (ACS Med Chem Lett, 2024).
In brackets after ≈: the same amount, converted by molar mass.

Experiments:
Assay type in all cases: functional
Conditions in all cases: time 1 weeks
[1] = test system: Mycobacterium tuberculosis; experiment: Antimycobacterial activity against high-grade isoniazid, rifampicin, ethambutol and pyrazinamide resistant Mycobacterium tuberculosis clinical isolate harboring mutations in inhA, katG, rpoB H526D, eis genes incubated for 1 week by resazurin dye based fluorescence analysis
[2] = test system: Mycobacterium tuberculosis; experiment: Antimycobacterial activity against low-grade isoniazid resistant Mycobacterium tuberculosis clinical isolate harboring mutation in inhA promoter region incubated for 1 week by resazurin dye based fluorescence analysis
[3] = test system: Mycobacterium tuberculosis; experiment: Antimycobacterial activity against high-grade isoniazid resistant Mycobacterium tuberculosis clinical isolate harboring katG S315T mutant incubated for 1 week by resazurin dye based fluorescence analysis
[4] = test system: Mycobacterium tuberculosis; experiment: Antimycobacterial activity against high-grade rifampicin resistant Mycobacterium tuberculosis clinical isolate harboring rpoB S531L mutant incubated for 1 week by resazurin dye based fluorescence analysis

SMILES | MIC50 [1] [µM] | MIC50 [2] [µM] | MIC50 [3] [µM] | MIC50 [4] [µM]
CC(=O)NC[C@H]1CN(c2ccc(N3CCOCC3)c(F)c2)C(=O)O1 [LINEZOLID] | 0.81 (≈ 0.273 µg/mL) | 0.12 (≈ 0.0405 µg/mL) | 0.42 (≈ 0.142 µg/mL) | 0.24 (≈ 0.081 µg/mL)
CO[C@H]1/C=C/O[C@@]2(C)Oc3c(C)c(O)c4c(O)c(c(/C=N/N5CCN(C)CC5)c(O)c4c3C2=O)NC(=O)/C(C)=C\C=C\[C@H](C)[C@H](O)[C@@H](C)[C@@H](O)[C@@H](C)[C@H](OC(C)=O)[C@@H]1C [RIFAMPIN] | >100 | <0.04 | <0.04 | 28.15 (≈ 23.2 µg/mL)
CCS(=O)(=O)NC[C@H]1CN(c2ccc(N3CCOCC3)c(F)c2)C(=O)O1 | 0.92 (≈ 0.356 µg/mL) | 0.14 (≈ 0.0542 µg/mL) | 0.53 (≈ 0.205 µg/mL) | 0.24 (≈ 0.093 µg/mL)
O=C(NC[C@H]1CN(c2ccc(N3CCOCC3)c(F)c2)C(=O)O1)c1cccs1 | 5.01 (≈ 2.03 µg/mL) | 1.78 (≈ 0.722 µg/mL) | 4.01 (≈ 1.63 µg/mL) | 2.78 (≈ 1.13 µg/mL)
O=C(NC[C@H]1CN(c2ccc(N3CCOCC3)c(F)c2)C(=O)O1)C1CC1 | 1.99 (≈ 0.723 µg/mL) | 0.33 (≈ 0.12 µg/mL) | 1.53 (≈ 0.556 µg/mL) | 0.82 (≈ 0.298 µg/mL)
NNC(=O)c1ccncc1 [ISONIAZID] | >100 | 0.98 (≈ 0.134 µg/mL) | 11.06 (≈ 1.52 µg/mL) | 23.03 (≈ 3.16 µg/mL)
O=C1O[C@@H](CNS(=O)(=O)c2cccs2)CN1c1ccc(N2CCOCC2)c(F)c1 | 7.01 (≈ 3.09 µg/mL) | 1.98 (≈ 0.874 µg/mL) | 4.52 (≈ 2 µg/mL) | 3.32 (≈ 1.47 µg/mL)
CS(=O)(=O)NC[C@H]1CN(c2ccc(N3CCOCC3)c(F)c2)C(=O)O1 | 8.83 (≈ 3.3 µg/mL) | 0.85 (≈ 0.317 µg/mL) | 10.35 (≈ 3.86 µg/mL) | 1.82 (≈ 0.68 µg/mL)
